Measurements reported in patent publication US20050272700A1, “Topical treatment and prevention of human papilloma virus (HPV) infection” (priority 2004, published 2005).

Tests used:
[1] = Stability testing of I3C solutions and formulations by HPLC; assay type: physicochemical; settings: for amount of the active remaining: aqueous medium, 5° C.; for loss of potency: 2 weeks
Description: Stability testing of the formulations was performed by HPLC analysis. The area of the peak representing I3C or a derivative thereof was monitored.

[2] = tested on: DMBA-induced mammary tumors; settings: Wattenberg and Loub 1978; cited from earlier work

| Compound | amount of the active remaining ([1]; pH 6.0, 2 weeks) | amount of the active remaining ([1]; pH 8.0, 2 weeks) | loss of potency ([1]; same aqueous composition at pH 7.4 without hydroxypropyl-β-cyclodextrin) | loss of potency ([1]; solution at pH 7.4 with added hydroxypropyl-β-cyclodextrin) | reduction of DMBA-induced mammary tumors [2] |
| --- | --- | --- | --- | --- | --- |
| OCc1c[nH]c2ccccc12 [Composition I3C, indole-3-carbinol] | completely decomposed | about 93% | 16% | 1.3% |  |
| c1ccc2c(Cc3c[nH]c4ccccc34)c[nH]c2c1 [DIM, 3,3′-diindoylmethane] |  |  |  |  | somewhat effective |
